Results taken from PubChem BioAssay (NCI).
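Dose response: 5 concentrations. Exposure: 48 h. Format: 96-well plates. Endpoint: linear interpolation; highest concentration if not reached. Definition used: TGI = concentration required for complete inhibition of growth.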

Key:
Experiment in all cases: DTP human tumour cell line panel, 48 h
[1] = test system: K-562 leukemia
[2] = test system: A549 NSCLC
[3] = test system: EKVX NSCLC
[4] = test system: MDA-MB-435
[5] = test system: HOP-92 NSCLC
[6] = test system: SK-MEL-28 melanoma
[7] = test system: IGROV1 ovarian
[8] = test system: KM12 colon
[9] = test system: HL-60(TB) leukemia
[10] = test system: DU-145 prostate
[11] = test system: OVCAR-3 ovarian
[12] = test system: BT-549 breast
[13] = test system: SF-539 CNS
[14] = test system: RPMI-8226 leukemia
[15] = test system: HCT-116 colon
[16] = test system: SF-268 CNS
[17] = test system: SF-295 CNS
[18] = test system: PC-3 prostate
[19] = test system: NCI-H460 lung
[20] = test system: MDA-N
[21] = test system: COLO 205 colon
[22] = test system: SN12C renal
[23] = test system: MDA-MB-231 breast
[24] = test system: HCC-2998 colon
[25] = test system: UO-31 renal
[26] = test system: U251 CNS
[27] = test system: SW-620 colon
[28] = test system: MOLT-4 leukemia
[29] = test system: NCI/ADR-RES ovarian
[30] = test system: SK-MEL-2 melanoma
[31] = test system: HCT-15 colon
[32] = test system: CAKI-1 renal
[33] = test system: SK-OV-3 ovarian
[34] = test system: M14 melanoma
[35] = test system: OVCAR-8 ovarian
[36] = test system: ACHN renal
[37] = test system: UACC-62 melanoma
[38] = test system: LOX IMVI melanoma
[39] = test system: MALME-3M melanoma
[40] = test system: NCI-H226 lung
[41] = test system: HT29 colon
[42] = test system: OVCAR-5 ovarian
[43] = test system: NCI-H23 lung
[44] = test system: OVCAR-4 ovarian
[45] = test system: A498 renal
[46] = test system: 786-0 renal
[47] = test system: SK-MEL-5 melanoma
[48] = test system: MCF7 breast
[49] = test system: UACC-257 melanoma
[50] = test system: NCI-H522 lung
[51] = test system: T-47D breast
[52] = test system: SNB-19 CNS
[53] = test system: SNB-75 CNS
[54] = test system: HS 578T breast
[55] = test system: HOP-62 NSCLC
[56] = test system: RXF 393 renal
[57] = test system: SR leukemia
[58] = test system: TK-10 renal
[59] = test system: CCRF-CEM leukemia

SMILES: Cc1cccc(C(C)(C)C)c1NC(=O)/C(Cc1nc2ccc([N+](=O)[O-])cc2[nH]c1=O)=N/NC(=O)C[N+](C)(C)C
- TGI [1]: > 100 µM
- TGI [2]: > 100 µM
- TGI [3]: > 100 µM
- TGI [4]: > 100 µM
- TGI [5]: > 100 µM
- TGI [6]: > 100 µM
- TGI [7]: > 100 µM
- TGI [8]: > 100 µM
- TGI [9]: > 100 µM
- TGI [10]: > 100 µM
- TGI [11]: > 100 µM
- TGI [12]: > 100 µM
- TGI [13]: > 100 µM
- TGI [14]: > 100 µM
- TGI [15]: > 100 µM
- TGI [16]: > 100 µM
- TGI [17]: > 100 µM
- TGI [18]: > 100 µM
- TGI [19]: > 100 µM
- TGI [20]: > 100 µM
- TGI [21]: > 100 µM
- TGI [22]: > 100 µM
- TGI [23]: > 100 µM
- TGI [24]: > 100 µM
- TGI [25]: > 100 µM
- TGI [26]: > 100 µM
- TGI [27]: > 100 µM
- TGI [28]: > 100 µM
- TGI [29]: > 100 µM
- TGI [30]: > 100 µM
- TGI [31]: > 100 µM
- TGI [32]: > 100 µM
- TGI [33]: > 100 µM
- TGI [34]: > 100 µM
- TGI [35]: > 100 µM
- TGI [36]: > 100 µM
- TGI [37]: > 100 µM
- TGI [38]: > 100 µM
- TGI [39]: > 100 µM
- TGI [40]: > 100 µM
- TGI [41]: > 100 µM
- TGI [42]: > 100 µM
- TGI [43]: > 100 µM
- TGI [44]: > 100 µM
- TGI [45]: > 100 µM
- TGI [46]: > 100 µM
- TGI [47]: > 100 µM
- TGI [48]: > 100 µM
- TGI [49]: > 100 µM
- TGI [50]: > 100 µM
- TGI [51]: > 100 µM
- TGI [52]: > 100 µM
- TGI [53]: > 100 µM
- TGI [54]: > 100 µM

SMILES: COC(=O)[C@H](C)N1C(=O)N[C@@H](C(C)C)C1=O
- TGI [1]: > 100 µM
- TGI [2]: > 100 µM
- TGI [3]: > 100 µM
- TGI [55]: > 100 µM
- TGI [4]: > 100 µM
- TGI [5]: > 100 µM
- TGI [6]: > 100 µM
- TGI [7]: > 100 µM
- TGI [8]: > 100 µM
- TGI [10]: > 100 µM
- TGI [11]: > 100 µM
- TGI [12]: > 100 µM
- TGI [56]: > 100 µM
- TGI [13]: > 100 µM
- TGI [14]: > 100 µM
- TGI [15]: > 100 µM
- TGI [17]: > 100 µM
- TGI [57]: > 100 µM
- TGI [18]: > 100 µM
- TGI [19]: > 100 µM
- TGI [58]: > 100 µM
- TGI [20]: > 100 µM
- TGI [21]: > 100 µM
- TGI [22]: > 100 µM
- TGI [23]: > 100 µM
- TGI [24]: > 100 µM
- TGI [25]: > 100 µM
- TGI [26]: > 100 µM
- TGI [27]: > 100 µM
- TGI [28]: > 100 µM
- TGI [29]: > 100 µM
- TGI [30]: > 100 µM
- TGI [31]: > 100 µM
- TGI [32]: > 100 µM
- TGI [33]: > 100 µM
- TGI [34]: > 100 µM
- TGI [35]: > 100 µM
- TGI [36]: > 100 µM
- TGI [37]: > 100 µM
- TGI [38]: > 100 µM
- TGI [39]: > 100 µM
- TGI [40]: > 100 µM
- TGI [41]: > 100 µM
- TGI [42]: > 100 µM
- TGI [43]: > 100 µM
- TGI [44]: > 100 µM
- TGI [46]: > 100 µM
- TGI [47]: > 100 µM
- TGI [59]: > 100 µM
- TGI [48]: > 100 µM
- TGI [49]: > 100 µM
- TGI [50]: > 100 µM
- TGI [51]: > 100 µM
- TGI [52]: > 100 µM
- TGI [53]: > 100 µM

SMILES: CCCn1c(C23CC4CC(CC(C4)C2)C3)nc2ccc(Cl)cc2c1=O
- TGI [1]: > 100 µM
- TGI [2]: > 100 µM
- TGI [3]: 95.4 µM
- TGI [55]: 70.1 µM
- TGI [4]: > 100 µM
- TGI [5]: > 100 µM
- TGI [6]: > 100 µM
- TGI [7]: > 100 µM
- TGI [8]: > 100 µM
- TGI [9]: > 100 µM
- TGI [10]: 95.9 µM
- TGI [11]: > 100 µM
- TGI [12]: > 100 µM
- TGI [56]: 29 µM
- TGI [13]: > 100 µM
- TGI [14]: > 100 µM
- TGI [15]: > 100 µM
- TGI [16]: > 100 µM
- TGI [17]: > 100 µM
- TGI [18]: > 100 µM
- TGI [19]: > 100 µM
- TGI [58]: > 100 µM
- TGI [20]: > 100 µM
- TGI [21]: > 100 µM
- TGI [22]: > 100 µM
- TGI [23]: > 100 µM
- TGI [25]: 39.5 µM
- TGI [26]: > 100 µM
- TGI [27]: > 100 µM
- TGI [28]: > 100 µM
- TGI [29]: > 100 µM
- TGI [30]: > 100 µM
- TGI [31]: > 100 µM
- TGI [32]: > 100 µM
- TGI [33]: > 100 µM
- TGI [34]: > 100 µM
- TGI [35]: > 100 µM
- TGI [36]: 47.9 µM
- TGI [37]: > 100 µM
- TGI [38]: > 100 µM
- TGI [39]: > 100 µM
- TGI [40]: > 100 µM
- TGI [41]: 80.2 µM
- TGI [42]: > 100 µM
- TGI [43]: > 100 µM
- TGI [44]: > 100 µM
- TGI [45]: 66.1 µM
- TGI [46]: > 100 µM
- TGI [47]: > 100 µM
- TGI [59]: > 100 µM
- TGI [48]: > 100 µM
- TGI [49]: > 100 µM
- TGI [50]: > 100 µM
- TGI [51]: > 100 µM
- TGI [52]: > 100 µM
- TGI [54]: > 100 µM
